One test addresses T1, HSP90α (HSP90AA1) (Homo sapiens, UniProt P07900).
T1 construct: recombinant human HSP90AA1 protein
In words: SPR (Biacore […], immobilized HSP90AA1); also C-terminal HSP90α:PPID AlphaLISA inhibition at […]. Format: binding.

The next test addresses T2, HSP90α (Homo sapiens, UniProt P07900).
T2 construct: gene HSP90AA1; purified recombinant HSP90α (N-terminal domain assay kit)
Nature of the test: competitive binding assay against FITC-labeled geldanamycin ([…] compound).

The term pKd denotes the negative decadic logarithm of the Kd, by convention in mol/L. A lower pKd goes with a large Kd.

pKd: −log10 of the molar value.

Consider `COc1c(C(=O)Nc2ccc3c(C)nn(CCC4CCN(C)CC4)c3c2)ccc2c1C=CC(C)(C)O2` [HVH-2930], for which the pKd on HSP90α (HSP90AA1) is 4.01.
`CC(C)c1cc(C(=O)N2Cc3ccc(CN4CCN(C)CC4)cc3C2)c(O)cc1O` [onalespib]: the “competitive binding assay against FITC-labeled geldanamycin (1000 nM compound)” value on HSP90α is reported as “unlike the N-terminal HSP90 inhibitors, neither HVH-2930 nor novobiocin exhibited any binding activity to the N-terminal region of HSP90α”.

Values taken from article PMC11024854 (Theranostics, 2024).
